Data published in patent US12391686B2, “Compounds and uses thereof” (Foghorn Therapeutics Inc., priority 2019, dated 2025).

What was measured:
[1] = tested on: synovial sarcoma cell lines (SYO1, HS-SY-II, and ASKA); assay: Crystal violet growth assay in synovial sarcoma cell lines, Example 4; assay type: cell-based; settings: for inhibition of the growth of the cells: SYO1, HS-SY-II, ASKA, treated daily, day 14, FIG. 8
Method: (§1) Procedure: Cells were seeded into 6-well or 12-well plates and were treated daily with a BRD9 degrader (Compound 1), a bromo-domain BRD9 binder (Compound 2), E3 ligase binder (lenalidomide), DMSO, or staurosporin (positive control for cell killing), at indicated concentrations. The number of cells was optimized for each cell line. Growth media was refreshed every 5 days. By day 14, medium was removed, cells were washed with PBS, and stained using 500 μL of 0.005% (w/v) crystal violet solution in 25% (v/v) methanol for at least 1 hour at room temperature. Subsequently plates were scanned on an Odyssey CLx Imaging system.

[2] = tested on: SYO1 cells; assay: Cell cycle analysis (Click-iT Plus EdU Flow Cytometry Assay); assay type: cell-based; settings: 200 nM or 1 μM, 8 or 13 days, as compared to DMSO and lenalidomide
Method: (§2) Procedure: SYO1 cells were treated for 8 or 13 days with DMSO, a BRD9 degrader (Compound 1) at 200 nM or 1 μM, or an E3 ligase binder (lenalidomide) at 200 nM. Compounds were refreshed every 5 days. Cell cycle analysis was performed using the Click-iT™ Plus EdU Flow Cytometry Assay (Invitrogen). The apoptosis assay was performed using the Annexin V-FITC Apoptosis Detection Kit (Sigma A9210). Assays were performed according to the manufacturer's protocol.

[3] = tested on: non-synovial control cancer cell lines (293T, A549, G401); assay: Growth of non-synovial control cancer cell lines, Example 3; assay type: cell-based; settings: FIGS. 5, 6, 7
Method: (§3) Procedures: Cells were treated with DMSO or the BRD9 degrader, Compound 1, at indicated concentrations, and proliferation was monitored from day 7 to day 14 by measuring confluency over time using an IncuCyte live cell analysis system (FIG. 5). Growth medium and compounds were refreshed every 3-4 days.
(§4) Cells were seeded into 12-well plates and treated with DMSO, 1 μM BRD9 inhibitor, Compound 2 (also known as BI-7273, see Martin et al, J Med Chem. 59(10):4462-4475 (2016); see structure of Compound 2 below), or 1 μM BRD9 degrader, Compound 1.
(§5) The number of cells was optimized for each cell line. Growth medium and compounds were refreshed every 3-5 days. SYO1, Yamato, A549, 293T and HS-SY-II cells were fixed and stained at day 11. ASKA cells were fixed and stained at day 23. Staining was done by incubation with crystal violet solution (0.5 g Crystal Violet, 27 ml 37% Formaldehyde, 100 mL 10×PBS, 10 mL Methanol, 863 dH2O to 1 L) for 30 min followed by 3× washes with water and drying the plates for at least 24 h at room temperature. Subsequently plates were scanned on an Odyssey CLx Imaging system (FIG. 6).
(§6) Cells were seeded into 96-well ultra low cluster plate (Costar, #7007) in 200 μL complete media and treated at day 2 with DMSO, Staurosporin, or BRD9 degarder, Compound 1, at indicated doses (FIG. 7). Media and compounds were changed every 5 d and cell colonies were imaged at day 14.

[4] = tested on: non-synovial control cancer cell lines (RD, HCT116, and Calu6); assay: Crystal violet growth assay in non-synovial control cancer cell lines, Example 4; assay type: cell-based; settings: treated daily, day 14, FIG. 9
Method: as §1

[5] = tested on: synovial sarcoma cell lines (SYO1, Yamato, HS-SY-II, and ASKA); assay: Growth of synovial sarcoma cell lines (IncuCyte confluency, crystal violet, colony imaging), Example 3; assay type: cell-based; settings: 1 μM or indicated doses, FIGS. 5, 6, 7
Method: as §3, §4, §5, §6

[6] = tested on: SYO1 cells; assay: Apoptosis assay (Annexin V-FITC Apoptosis Detection Kit); assay type: cell-based; settings: 200 nM or 1 μM, 8 days, as compared to DMSO controls
Method: as §2

[7] = target: T1, BRD9 bromodomain (Flag-BRD9 P133-K239; Swiss Prot Q9H8M2) (Homo sapiens, UniProt Q9H8M2); assay: BRD9 Bromodomain TR-FRET Competition Binding Assay; settings: competition with biotinylated BRD9 ligand; 90 minutes at room temperature
T1 construct: His-Flag-BRD9 (P133-K239); Swiss Prot Q9H8M2; His6 with TEV site (mgsshhhhhhenlyfq/) (N, cleaved yes); made in house
T1 sequence (Q9H8M2 133-239): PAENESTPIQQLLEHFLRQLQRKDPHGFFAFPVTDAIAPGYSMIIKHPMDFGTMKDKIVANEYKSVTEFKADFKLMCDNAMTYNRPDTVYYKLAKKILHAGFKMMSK
In short: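 Tag-cleaved Flag-BRD9 (P133-K239) at 3 nM final displacing 3.75 nM biotinylated ligand, with 7.5 nM APC-streptavidin and 0.2 nM Eu-anti-FLAG, in 50 mM HEPES pH 7.4, 50 mM NaCl, 1 mM TCEP, 0.01% Tween-20, 0.01% BSA. Read after 90 min at room temperature as 665/615 nm ratio.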

[8] = target: T2, Nanoluciferase-BRD9 fusion protein (3×FLAG-NLuc-BRD9) in SYO-1 cells (Homo sapiens, UniProt Q9H8M2); assay: SYO1 BRD9 NanoLuc Degradation Assay; assay type: cell-based; settings: 6 hours; SYO-1 cells expressing 3×FLAG-NLuc-BRD9; top dose 1 μM; read-out: SYO1 BRD9-NanoLuc degradation IC50
T2 construct: expressed in transfected cells; host or cells: SYO-1
T2 sequence (Q9H8M2 1-597): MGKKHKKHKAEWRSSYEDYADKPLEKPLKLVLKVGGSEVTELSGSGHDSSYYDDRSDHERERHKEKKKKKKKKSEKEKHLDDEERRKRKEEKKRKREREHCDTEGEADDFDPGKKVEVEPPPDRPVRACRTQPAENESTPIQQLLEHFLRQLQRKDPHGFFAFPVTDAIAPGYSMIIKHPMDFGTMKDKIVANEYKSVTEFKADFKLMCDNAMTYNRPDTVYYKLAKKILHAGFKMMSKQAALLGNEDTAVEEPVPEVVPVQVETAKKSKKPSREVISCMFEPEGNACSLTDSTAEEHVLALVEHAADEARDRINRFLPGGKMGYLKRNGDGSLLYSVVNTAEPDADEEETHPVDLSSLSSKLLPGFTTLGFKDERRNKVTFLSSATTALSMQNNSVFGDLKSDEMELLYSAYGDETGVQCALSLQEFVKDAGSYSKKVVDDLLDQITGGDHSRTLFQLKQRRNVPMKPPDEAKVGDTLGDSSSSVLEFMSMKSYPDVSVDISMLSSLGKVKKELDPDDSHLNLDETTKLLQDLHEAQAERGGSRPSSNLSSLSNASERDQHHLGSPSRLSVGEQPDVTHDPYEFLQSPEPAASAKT
In short: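 Stable 3×FLAG-NLuc-BRD9 SYO-1 line, 8000 cells/well, dosed day 1 with 10-point 3-fold dilutions (1 μM final top, duplicates) for 6 h. NanoLuc bioluminescence read with Nano-Glo; % inhibition relative to DMSO (high) and 1 μM reference BRD9 degrader (low) controls.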

Row | Compound | inhibition of the growth of the cells [1] | growth inhibition compared with the other treatments ([1]; all synovial cell lines, versus Compound 2 and lenalidomide) | numbers of cells in the S-phase of the cell cycle [2] | inhibition of the growth of the cells [3] | inhibition of the growth of the cells [4] | inhibition of the growth of the cells [5] | numbers of early- and late-apoptotic cells [6] | IC50 [7] [nM] | DC50 [8] [nM]
1 | COc1cc(-c2cn(C)c(=O)c3cnccc23)cc(OC)c1CN(C)CC(=O)NCCOCCOCCNc1cccc2c1C(=O)N(C1CCC(=O)NC1=O)C2=O (centres unmarked) [Compound 1] | inhibition of the growth of the cells | most significant growth inhibition | reduced numbers of cells in the S-phase | does not result in inhibition of the growth | did not result in inhibition of the growth | inhibition of the growth of the cells | increased numbers of early- and late-apoptotic cells | – | –
2 | COc1cc(-c2cn(C)c(=O)c3cnccc23)cc(OC)c1CN(C)C [Compound 2] | inhibition of the growth of the cells | – | – | does not result in inhibition of the growth | did not result in inhibition of the growth | inhibition of the growth of the cells | – | – | –
3 | CNc1cc2c(=O)n(C)cc(-c3cc(OC)c(CN4CCN(C(=O)COc5cccc6c5C(=O)N(C5CCC(=O)NC5=O)C6=O)CC4)c(OC)c3)c2cn1 (centres unmarked) [Compound D29, 4-[2-[4-([2,6-dimethoxy-4-[2-methyl-7-(methylamino)-1-oxo-2,6-naphthyridin-4-yl]phenyl]methyl)piperazin-1-yl]-2-oxoethoxy]-2-(2,6-dioxopiperidin-3-yl)isoindole-1,3-dione] | – | – | – | – | – | – | – | < 10 | < 10
4 | CNc1cc2c(=O)n(C)cc(-c3cc(OC)c(CN4CCC(CCN5CCN(c6ccc7c(c6)C(=O)N(C6CCC(=O)NC6=O)C7=O)CC5)CC4)c(OC)c3)c2cn1 (centres unmarked) [Compound D30, 5-(4-[2-[1-([2,6-dimethoxy-4-[2-methyl-7-(methylamino)-1-oxo-2,6-naphthyridin-4-yl]phenyl]methyl)piperidin-4-yl]ethyl]piperazin-1-yl)-2-(2,6-dioxopiperidin-3-yl)isoindole-1,3-dione formic acid] | – | – | – | – | – | – | – | < 10 | < 10
5 | COc1cc(-c2cn(C)c(=O)c3cnc(N(C)CCOCCOCCNc4cccc5c4C(=O)N(C4CCC(=O)NC4=O)C5=O)cc23)cc(OC)c1CN(C)C (centres unmarked) [Compound D31, 4-[10-(5-[4-[(dimethylamino)methyl]-3,5-dimethoxyphenyl]-7-methyl-8-oxo-2,7-naphthyridin-3-yl)-4,7-dioxa-1,10-diazaundecan-1-yl]-2-(2,6-dioxopiperidin-3-yl)isoindole-1,3-dione] | – | – | – | – | – | – | – | ≥ 10 | ≥ 100
